Laboratory results reported in US20090216117A1, “NOVEL METHOD OF USING TRIACETIN AND AUXILIARY AGENT FOR ULTRASONIC DIAGNOSTIC EXAMINATION” (SHINSHU UNIVERSITY, priority 2005, published 2009).
“Also recorded” adds a separate entry of the source.

How the values were obtained:
Beagles [1] = experiment: Test 2: Pylorus occlusion test (gastric emptying, Evans blue recovery from duodenum); assay type: in vivo; conditions: for suppression of quantitative gastric emptying in comparison with physiological saline: 50 mL test fluid into stomach; for percent emptied: after 50 minutes, almost all physiological saline emptied by about 30 minutes
Protocol: To 10 mL of triacetin (Wako Pure Chemical Industries, Ltd.), 40 mL of water was added to make a total volume of 50 mL, thereby making test fluid A.
Ten milliliters of olive oil (Wako Pure Chemical Industries, Ltd.) and 10 mL of propylene glycol were mixed and water was added to make a total volume of 50 mL, thereby making test fluid B.
Half a gram of stearic acid (Wako Pure Chemical Industries, Ltd.) and 20 mL of propylene glycol were mixed and water was added to make a total volume of 50 mL, thereby making test fluid C.
Beagles each weighing about 10 kg were given general anesthesia with an injection of Nembutal (Dainippon Pharmaceutical Co., Ltd.) and following middle incision, tubes were inserted into the body of stomach and the duodenum as shown in FIG. 8 and with each tube being passed subcutaneously through the flank to the back, the dogs received a preliminary invasive operation for an experiment under an unanesthetized condition.
Starting six days after the operation when there were no longer the effects of anesthesia and those of the operative invasion and the general condition had recovered, the study of the sample fluids of interest was started. To be more specific, it is well known that the gastric emptying capability is suppressed under an anesthetized condition, so in the Example under consideration, in order to eliminate that effect and also to determine data for a more normal state, an experiment was conducted under a chronic unanesthetized condition.
To each test fluid, 5 mg of Evans blue (Wako Pure Chemical Industries, Ltd.) was added and 50 mL of the mixture was injected into the stomach of each beagle through the tube indicated by 1 in FIG. 8. Similarly, a tube was placed in the duodenum and the test fluid emptied from the stomach was recovered through the tube indicated by 2 in FIG. 8. At given time intervals, the emptied test fluid was recovered by suction (for one minute) through the tube left in place in the duodenum and the Evans blue contained in it was measured for absorbance (DU R640 SPECTRO PHOTOMETER, product of Beckman Inc.) at a wavelength of 605 nm, to thereby measure the concentration of Evans blue in the suctioned fluid; the amount of recovery was used to determine the gastric emptying rate.

[2] = Test 1: viscosity comparison with Brookfield viscometer; assay type: physicochemical
Protocol: Using water (ion-exchanged water), an aqueous solution of triacetin, and an aqueous solution of sodium alginate which is a typical viscosity enhancing polysaccharide (KIMICA Corporation, Grade: IL-2), viscosity comparison was made. Viscosity was measured with a Brookfield viscometer (product of TOKIMEC INC., Model BM).

Beagles [3] = experiment: Test 3: Measurement of gastric contractile motion by strain gage; assay type: in vivo
Protocol: Two hundred microliters of triacetin (Wako Pure Chemical Industries, Ltd.) was dissolved in distilled water to make a volume of 20 mL, thereby making test fluid D.
Four milliliters of olive oil (Wako Pure Chemical Industries, Ltd.) was dissolved in distilled water to make a volume of 20 mL, thereby making test fluid E.
Twenty milliliters of distilled water was used as control fluid F.
In order to measure muscular contraction with the strain gage, the submucosa was stretched so that the surface of the mucous membrane would not be incised and the strain gage was buried in the submucosa and sutured thereto, with the wound of incision being closed by a suture.
The tube and the strain gage were subcutaneously guided to the outside of the body from the flank to the back and the dogs received a preliminary invasive operation for an experiment under an unanesthetized condition.
Starting six days after the operation when there were no longer the effects of anesthesia and those of the operative invasion and the general condition had recovered, the study of the sample fluids of interest was started. […]
Note that signals from the strain gage were amplified (VC-11, NIHON KOHDEN) and then AD converted, with the resulting digital data being analyzed with Origin Version 6.5 (OriginLab Corporation). […]

[4] = Dissolution of triacetin in water; assay type: physicochemical; conditions: ordinary temperature
Text: If the auxiliary agent for examination in ultrasonic imaging diagnosis is used in the state of an emulsion, the oil-water interface will reflect ultrasound and affect its propagation. […] For instance, triacetin described in the present invention can be dissolved in water in an amount of about 7% at ordinary temperature without forming an emulsion and this concentration is sufficient for suppressing gastric motility.

Row | SMILES | time at which the emptied amount peaked (Beagles [1]; 50 mL test fluid A into stomach, physiological saline peaked at about 5 minutes) | pylorus occluding effect (Beagles [1]; 50 mL test fluid injected into stomach, unanesthetized beagles, physiological saline as comparison) | suppression of quantitative gastric emptying in comparison with physiological saline (Beagles [1]) | percent emptied (Beagles [1]) | Viscosity ([2]; 0.2% aqueous solution) | Viscosity ([2]; 1.0% aqueous solution) | Viscosity ([2]; 5.0% aqueous solution) | viscosity enhancement as compared with sodium alginate ([2]; aqueous solutions) | change in amplitude and frequency of contractions (contractile motion of the stomach) (Beagles [3]; 20 μL/kg injected into stomach in phase III, fasted unanesthetized beagles) | duration of the suppression of contractile motion after injection (Beagles [3]; 20 μL/kg, change occurred immediately after the injection) | amount that can be dissolved in water without forming an emulsion [4]
1 | CC(=O)OCC(COC(C)=O)OC(C)=O [Triacetin, triacetin] | 10 to 20 min | markedly effective in occluding the pylorus | obviously suppressed | about 5% | 10.1 mPa · s | 10.8 mPa · s | 16.7 mPa · s | considerably less effective in viscosity enhancement | obvious suppression of the contractile motion; also recorded: decreased both the amplitude and frequency of contractions | about three | about 7%
2 | CCCCCCCCCCCCCCCCCC(=O)O [stearic acid, reference compound] |  |  | obvious suppression | about 10% |  |  |  |  |  |  | 
